Source: patent US4487924A, “2'-N-β-Lysyl) aminoglycosides” (Kowa Company, Ltd., priority 1982, dated 1984)
Values after ≈ are worked out from the molar mass of the structure shown. Read-outs that look alike come from different tables or passages of the source.

Legend:
Test in all cases: Antibiotic activity (MIC), Table 1
Type in all cases: cell-based
[1] = tested on: P. aeruginosa RST-1 (AAC(3)-III)
P. cepacia 11D 1340 = tested on: P. cepacia 11D 1340
[2] = tested on: P. inconstans GN1554 (AAC(2'))
E. cloacae IID 977 = tested on: E. cloacae IID 977
S. marcescens NHL = tested on: S. marcescens NHL
E. coli JR 88 (AAC(3)-I) = tested on: E. coli JR 88 (AAC(3)-I)
P. aeruginosa NCTC 10490 = tested on: P. aeruginosa NCTC 10490
P. vulgaris IID 874 = tested on: P. vulgaris IID 874
[3] = tested on: P. aeruginosa TI 13 (APH(3')-I)
P. maltophilia IID 1275 = tested on: P. maltophilia IID 1275
[4] = tested on: K. pneumoniae 4687 (AAD(2"))
[5] = tested on: P. aeruginosa 99 (AAC(3)-I)
P. putida IID 5121 = tested on: P. putida IID 5121
E. coli ML 1410 = tested on: E. coli ML 1410
E. coli R176 (AAC(3)-II) = tested on: E. coli R176 (AAC(3)-II)
B. subtilis ATCC 6633 = tested on: B. subtilis ATCC 6633
[6] = tested on: P. aerugionosa TK-157 (APH(3')-II)
S. faecalis Imanari = tested on: S. faecalis Imanari
P. inconstans 93 = tested on: P. inconstans 93
S. aureus 209P JC-1 = tested on: S. aureus 209P JC-1
K. pneumoniae PCI 602 = tested on: K. pneumoniae PCI 602
E. coli NIHJ JC-2 = tested on: E. coli NIHJ JC-2
[7] = tested on: P. aeruginosa GN315 (AAC(6')-IV)
[8] = tested on: E. coli ML 1410 R102 (AAD(2")); details: Escherichia coli
[9] = tested on: E. coli ML 1410 R82 (AAD(3")); details: Escherichia coli
[10] = Pseudomonas aeruginosa, read-out: MIC
[11] = Burkholderia cepacia, 11D1340, read-out: MIC
[12] = Providencia alcalifaciens, GN1554, P. inconstans GN1554 (AAC(2')), read-out: MIC
[13] = Enterobacter cloacae, IID977, E. cloacae IID 977, read-out: MIC
[14] = Serratia marcescens, read-out: MIC
[15] = Escherichia coli, read-out: MIC
[16] = Pseudomonas aeruginosa, NCTC10490, P. aeruginosa NCTC 10490, read-out: MIC
[17] = Stenotrophomonas maltophilia, IID1275, P. maltophilia IID 1275, read-out: MIC
[18] = Klebsiella pneumoniae, read-out: MIC
[19] = Pseudomonas putida, IID5121, P. putida IID 5121, read-out: MIC
[20] = Escherichia coli, ML1410, E. coli ML 1410, read-out: MIC
[21] = Bacillus subtilis, ATCC6633, B. subtilis ATCC 6633, read-out: MIC
[22] = Enterococcus faecalis, read-out: MIC
[23] = Staphylococcus aureus, 209P, read-out: MIC
[24] = Klebsiella pneumoniae, PCI602, K. pneumoniae PCI 602, read-out: MIC
[25] = Escherichia coli, NIHJJC2, E. coli NIHJ JC-2, read-out: MIC
[26] = Pseudomonas aeruginosa, GN315, P. aeruginosa GN315 (AAC(6')-IV), read-out: MIC

In the case of `CNC1C(O)CC(N)C(OC2OC(C(C)N)CCC2NC(=O)C[C@@H](N)CCCN)C1O` (stereo partly drawn) [2'-N-β-Lysyl 5-de-O-Me KA-6606II, 2'-N-(L-β-lysyl)-5-de-O-methyl-KA-6606II], the MIC [1] is reported as 100 µg/mL (≈ 224 µM), the MIC (P. cepacia 11D 1340) is reported as over 100 µg/mL and the MIC ([2]; P. inconstans GN1554 (AAC(2'))) is reported as 1.56 µg/mL (≈ 3.49 µM). It also gave an MIC (E. cloacae IID 977; E. cloacae IID 977) of 12.5 µg/mL (≈ 28 µM), an MIC (S. marcescens NHL) of 3.13 µg/mL (≈ 7.01 µM) and an MIC (E. coli JR 88 (AAC(3)-I)) of 12.5 µg/mL (≈ 28 µM). For the same compound, the MIC (P. aeruginosa NCTC 10490; P. aeruginosa NCTC 10490) was 25 µg/mL (≈ 56 µM), the MIC (P. vulgaris IID 874; P. vulgaris IID 874) was 25 µg/mL (≈ 56 µM) and the MIC [3] was 50 µg/mL (≈ 112 µM). For the same compound, the MIC (P. maltophilia IID 1275; P. maltophilia IID 1275) was 1.56 µg/mL (≈ 3.49 µM), the MIC [4] was 12.5 µg/mL (≈ 28 µM) and the MIC [5] was over 100 µg/mL. It also gave an MIC (P. putida IID 5121; P. putida IID 5121) of 25 µg/mL (≈ 56 µM), an MIC (E. coli ML 1410; E. coli ML 1410) of 6.25 µg/mL (≈ 14 µM) and an MIC (E. coli R176 (AAC(3)-II)) of 6.25 µg/mL (≈ 14 µM). For the same compound, the MIC (B. subtilis ATCC 6633; B. subtilis ATCC 6633) was 3.13 µg/mL (≈ 7.01 µM), the MIC [6] was 50 µg/mL (≈ 112 µM) and the MIC (S. faecalis Imanari) was 3.13 µg/mL (≈ 7.01 µM). It also gave an MIC (P. inconstans 93; P. inconstans 93) of 1.56 µg/mL (≈ 3.49 µM), an MIC (S. aureus 209P JC-1) of 0.78 µg/mL (≈ 1.75 µM) and an MIC (K. pneumoniae PCI 602; K. pneumoniae PCI 602) of 0.78 µg/mL (≈ 1.75 µM). The MIC (E. coli NIHJ JC-2; E. coli NIHJ JC-2) was 3.13 µg/mL (≈ 7.01 µM) and the MIC ([7]; P. aeruginosa GN315 (AAC(6')-IV)) was over 100 µg/mL.

`CNC1C(O)CC(N)C(OC2OC(C(C)N)CCC2NC(=O)C[C@@H](N)CCCN)C1O` (stereo partly drawn) [2'-N-β-Lysyl 5-de-O-Me KA-6606VIII, 2'-N-(L-β-lysyl)-5-de-O-methyl-KA-6606VIII] gave an MIC [1, 10] of over 100 µg/mL, an MIC (P. cepacia 11D 1340; [11]) of over 100 µg/mL and an MIC [2, 12] of 1.56 µg/mL (≈ 3.49 µM). The MIC (E. cloacae IID 977; [13]) was 25 µg/mL (≈ 56 µM), the MIC (S. marcescens NHL; [14]) was 6.25 µg/mL (≈ 14 µM) and the MIC (E. coli JR 88 (AAC(3)-I); [15]) was 6.25 µg/mL (≈ 14 µM). The MIC (P. aeruginosa NCTC 10490; [16]) was 50 µg/mL (≈ 112 µM), the MIC (P. vulgaris IID 874; P. vulgaris IID 874) was 100 µg/mL (≈ 224 µM) and the MIC ([3]; Pseudomonas aeruginosa) was 50 µg/mL (≈ 112 µM). For the same compound, the MIC (P. maltophilia IID 1275; [17]) was 1.56 µg/mL (≈ 3.49 µM), the MIC [4, 18] was 12.5 µg/mL (≈ 28 µM) and the MIC [5, 10] was over 100 µg/mL. For the same compound, the MIC (P. putida IID 5121; [19]) was 12.5 µg/mL (≈ 28 µM), the MIC (E. coli ML 1410; [20]) was 6.25 µg/mL (≈ 14 µM) and the MIC (E. coli R176 (AAC(3)-II); [15]) was 6.25 µg/mL (≈ 14 µM). For the same compound, the MIC (B. subtilis ATCC 6633; [21]) was 3.13 µg/mL (≈ 7.01 µM), the MIC ([6]; read-out: MIC) was 50 µg/mL (≈ 112 µM) and the MIC (S. faecalis Imanari; [22]) was 3.13 µg/mL (≈ 7.01 µM). The MIC (P. inconstans 93; P. inconstans 93) was 3.13 µg/mL (≈ 7.01 µM), the MIC (S. aureus 209P JC-1; [23]) was 0.78 µg/mL (≈ 1.75 µM) and the MIC (K. pneumoniae PCI 602; [24]) was 0.78 µg/mL (≈ 1.75 µM). For the same compound, the MIC (E. coli NIHJ JC-2; [25]) was 6.25 µg/mL (≈ 14 µM) and the MIC [7, 26] was over 100 µg/mL.

With `CNC1C(OC)CC(N)C(OC2OC(C(C)N)CCC2NC(=O)C[C@@H](N)CCCN)C1O` (stereo partly drawn) [2'-N-β-Lysyl KA-6606VIII, 2'-N-(L-β-lysyl)-KA-6606VIII] the MIC [1, 10] was 100 µg/mL (≈ 217 µM), the MIC (P. cepacia 11D 1340; [11]) was over 100 µg/mL and the MIC [2, 12] was 0.2 µg/mL (≈ 0.434 µM). For the same compound, the MIC (E. cloacae IID 977; [13]) was 3.13 µg/mL (≈ 6.8 µM), the MIC (S. marcescens NHL; [14]) was 0.2 µg/mL (≈ 0.434 µM) and the MIC (E. coli JR 88 (AAC(3)-I); [15]) was 0.78 µg/mL (≈ 1.69 µM). It also gave an MIC (P. aeruginosa NCTC 10490; [16]) of 6.25 µg/mL (≈ 13.6 µM), an MIC (P. vulgaris IID 874; Proteus vulgaris, IID874, P. vulgaris IID 874, read-out: MIC) of 12.5 µg/mL (≈ 27.1 µM) and an MIC ([3]; Pseudomonas aeruginosa) of 25 µg/mL (≈ 54.3 µM). The MIC [8] was 0.39 µg/mL (≈ 0.847 µM), the MIC (P. maltophilia IID 1275; [17]) was 1.56 µg/mL (≈ 3.39 µM) and the MIC [4, 18] was 0.78 µg/mL (≈ 1.69 µM). It also gave an MIC [5, 10] of 50 µg/mL (≈ 109 µM), an MIC (P. putida IID 5121; [19]) of 3.13 µg/mL (≈ 6.8 µM) and an MIC (E. coli ML 1410; [20]) of 0.78 µg/mL (≈ 1.69 µM). For the same compound, the MIC (E. coli R176 (AAC(3)-II); [15]) was 0.78 µg/mL (≈ 1.69 µM), the MIC (B. subtilis ATCC 6633; [21]) was 3.13 µg/mL (≈ 6.8 µM) and the MIC ([6]; read-out: MIC) was 25 µg/mL (≈ 54.3 µM). The MIC (S. faecalis Imanari; [22]) was 1.56 µg/mL (≈ 3.39 µM), the MIC (P. inconstans 93; Providencia alcalifaciens, 93, P. inconstans 93, read-out: MIC) was 0.39 µg/mL (≈ 0.847 µM) and the MIC (S. aureus 209P JC-1; [23]) was 0.39 µg/mL (≈ 0.847 µM). The MIC [9] was 0.39 µg/mL (≈ 0.847 µM), the MIC (K. pneumoniae PCI 602; [24]) was 0.78 µg/mL (≈ 1.69 µM) and the MIC (E. coli NIHJ JC-2; [25]) was 1.56 µg/mL (≈ 3.39 µM). For the same compound, the MIC [7, 26] was 25 µg/mL (≈ 54.3 µM).
